Some results are limits rather than exact numbers.

Chain of human, KCNT1 (Q5JUK3 whole entry): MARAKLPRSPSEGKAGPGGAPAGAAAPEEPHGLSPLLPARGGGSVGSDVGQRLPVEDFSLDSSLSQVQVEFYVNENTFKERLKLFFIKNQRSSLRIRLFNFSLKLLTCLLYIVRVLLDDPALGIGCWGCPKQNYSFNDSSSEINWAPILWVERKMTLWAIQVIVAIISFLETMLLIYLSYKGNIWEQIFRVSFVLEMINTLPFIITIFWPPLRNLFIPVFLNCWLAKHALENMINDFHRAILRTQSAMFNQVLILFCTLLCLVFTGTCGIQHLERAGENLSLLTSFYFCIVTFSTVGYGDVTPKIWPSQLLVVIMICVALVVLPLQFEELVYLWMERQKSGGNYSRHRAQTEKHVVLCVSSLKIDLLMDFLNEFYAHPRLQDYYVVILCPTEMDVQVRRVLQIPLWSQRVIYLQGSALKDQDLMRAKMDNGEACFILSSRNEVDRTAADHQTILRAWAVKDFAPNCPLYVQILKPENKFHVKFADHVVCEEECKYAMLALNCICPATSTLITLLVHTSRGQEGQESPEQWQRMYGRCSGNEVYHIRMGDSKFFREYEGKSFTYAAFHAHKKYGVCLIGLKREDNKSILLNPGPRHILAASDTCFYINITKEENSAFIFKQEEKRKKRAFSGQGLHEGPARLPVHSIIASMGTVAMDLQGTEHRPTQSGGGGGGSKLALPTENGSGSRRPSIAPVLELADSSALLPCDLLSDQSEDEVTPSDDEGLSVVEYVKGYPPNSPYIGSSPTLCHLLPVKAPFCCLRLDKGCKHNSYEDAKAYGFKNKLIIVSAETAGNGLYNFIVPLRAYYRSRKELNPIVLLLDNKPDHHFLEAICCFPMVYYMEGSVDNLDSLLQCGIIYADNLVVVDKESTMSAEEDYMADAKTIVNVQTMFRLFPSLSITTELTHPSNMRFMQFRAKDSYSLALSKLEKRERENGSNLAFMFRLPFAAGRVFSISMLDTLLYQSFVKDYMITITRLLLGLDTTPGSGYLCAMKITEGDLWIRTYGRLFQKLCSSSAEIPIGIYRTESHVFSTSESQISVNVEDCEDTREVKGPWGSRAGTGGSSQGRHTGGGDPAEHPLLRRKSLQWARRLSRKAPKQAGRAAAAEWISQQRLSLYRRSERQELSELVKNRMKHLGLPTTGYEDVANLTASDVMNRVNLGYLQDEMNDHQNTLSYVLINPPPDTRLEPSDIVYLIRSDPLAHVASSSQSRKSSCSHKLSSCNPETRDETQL

This experiment concerns the target human, KCNT1 (Homo sapiens (Human), UniProt Q5JUK3). Briefly: FLIPR Tl/K Flux Assay. It counts as cell-based. The note with it: HEK293 cells stably expressing human KCNT1; Tl+ flux stimulated with EC80 of agonist Loxapine. In outline: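 HEK293 cells stably expressing human KCNT1 were loaded with FLIPR potassium dye in HEPES/HBSS pH 7.4 with 5 mM probenecid, 1 h at 25 °C, then given test compound for 30 min at 25 °C. Tl+ flux was triggered with chloride-free buffer containing Tl+ and EC80 loxapine and read 160 s. IC50 came from Hill fits of % inhibition.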
Take `Cc1nn(C(F)(F)F)cc1C(=O)N[C@H]1CCCn2nc(-c3ccnc(C(F)(F)F)c3)cc21` [Compound I-325a, (S)-3-Methyl-1-(trifluoromethyl)-N-(2-(2-(trifluoromethyl)pyridin-4-yl)-4,5,6,7-tetrahydropyrazolo[1,5-a]pyridin-4-yl)-1H-pyrazole-4-carboxamide]: the half-inhibitory concentration (IC50) (usually the concentration needed to halve the response being measured) is under 250 nM.

Regarding `COc1cc(-c2cc3n(n2)CCC[C@@H]3NC(=O)c2cc(F)cc(C#N)c2)ccn1` [Compound I-313a, (S)-3-Cyano-5-fluoro-N-(2-(2-methoxypyridin-4-yl)-4,5,6,7-tetrahydropyrazolo[1,5-a]pyridin-4-yl)benzamide], the IC50 is under 250 nM.

For `O=C(N[C@H]1CCCn2nc(-c3cc(C(F)(F)F)ncc3F)nc21)c1cncc(C(F)(F)F)n1` [Compound I-182a, (S)-N-(2-(5-Fluoro-2-(trifluoromethyl)pyridin-4-yl)-5,6,7,8-tetrahydro-[1,2,4]triazolo[1,5-a]pyridin-8-yl)-6-(trifluoromethyl)pyrazine-2-carboxamide], the half-maximal inhibitory concentration (IC50) was 500 to 1000 nM.

With `O=C(N[C@H]1CCn2nc(-c3ccnc(C(F)(F)F)c3)cc21)c1cc(F)cc(F)c1` [Compound I-120a, (S)-3,5-difluoro-N-(2-(2-(trifluoromethyl)pyridin-4-yl)-5,6-dihydro-4H-pyrrolo[1,2-b]pyrazol-4-yl)benzamide], the IC50 is under 250 nM.

In turn, `Cn1ncnc1C(=O)N[C@H]1CCCc2oc(-c3ccnc(C4CC4)c3)nc21` [Compound I-228a, (S)-N-(2-(2-Cyclopropylpyridin-4-yl)-4,5,6,7-tetrahydrobenzo[d]oxazol-4-yl)-1-methyl-1H-1,2,4-triazole-5-carboxamide] gave a half-maximal inhibitory concentration (IC50) of over 1000 nM.

`Cn1nc(C(F)(F)F)cc1C(=O)N[C@@H]1CCc2nn(-c3ccnc(C4CCC4)c3)cc21` [Compound I-72b]: the IC50 is over 1000 nM.

Molecule `N#Cc1cncc(C(=O)N[C@H]2CCCn3nc(-c4ccnc(C(F)(F)F)c4)cc32)n1` [Compound I-321a, (S)-6-Cyano-N-(2-(2-(trifluoromethyl)pyridin-4-yl)-4,5,6,7-tetrahydropyrazolo[1,5-a]pyridin-4-yl)pyrazine-2-carboxamide] registered a half-maximal inhibitory concentration (IC50) of under 250 nM.

Molecule `O=C(N[C@H]1CCCn2nc(-c3ccnc(C(F)(F)F)c3)cc21)c1cccc(C(F)(F)F)c1` [Compound I-290a, (S)-3-(Trifluoromethyl)-N-(2-(2-(trifluoromethyl)pyridin-4-yl)-4,5,6,7-tetrahydropyrazolo[1,5-a]pyridin-4-yl)benzamide] gave an IC50 of under 250 nM.

`Cn1nc(C(F)(F)F)cc1C(=O)N[C@H]1CCCc2nn(-c3ccnc(C(=O)O)c3)cc21` [Compound I-88a] showed a half-maximal inhibitory concentration (IC50) of over 1000 nM.

`O=C(NC1CCCc2nn(-c3ccnc(C(F)(F)F)c3)cc21)c1cccnc1` (racemic) [Compound I-32, (rac)-N-(2-(2-(Trifluoromethyl)pyridin-4-yl)-4,5,6,7-tetrahydro-2H-indazol-4-yl)nicotinamide] gave an IC50 of over 1000 nM.

Turning to `O=C(N[C@H]1CCCc2nnc(-c3ccnc(C(F)(F)F)c3)cc21)c1cc(F)cc(F)c1` [Compound I-453a], the half-inhibitory concentration (IC50) is over 1000 nM.

`Cn1nc(C(C)(F)F)cc1C(=O)NC1CCCc2nn(-c3ccnc(C(F)(F)F)c3)cc21` (racemic) [Compound I-10, (rac)-3-(1,1-Difluoroethyl)-1-methyl-N-(2-(2-(trifluoromethyl)pyridin-4-yl)-4,5,6,7-tetrahydro-2H-indazol-4-yl)-1H-pyrazole-5-carboxamide] had an IC50 of under 250 nM.

In turn, `CCOc1cc(C(=O)N[C@H]2CCn3nc(-c4cc(C(F)(F)F)ncc4F)cc32)ccn1` [Compound I-318a, (S)-2-Ethoxy-N-(2-(5-fluoro-2-(trifluoromethyl)pyridin-4-yl)-5,6-dihydro-4H-pyrrolo[1,2-b]pyrazol-4-yl)isonicotinamide] gave an IC50 of under 250 nM.

Turning to `Cn1nc(C(F)(F)F)cc1C(=O)NC1CCCn2nc(-c3ccnc(C(F)(F)F)c3)cc21` (racemic) [Compound I-42, (rac)-1-Methyl-3-(trifluoromethyl)-N-(2-(2-(trifluoromethyl)pyridin-4-yl)-4,5,6,7-tetrahydropyrazolo[1,5-a]pyridin-4-yl)-1H-pyrazole-5-carboxamide], the 50% inhibitory concentration (IC50) is under 250 nM.

Consider `O=C(N[C@H]1CCCc2nn(-c3ccnc(C(F)(F)F)c3)cc21)c1cc(C(F)(F)F)nn1C1CC1` [Compound I-9a, (S)-1-Cyclopropyl-3-(trifluoromethyl)-N-(2-(2-(trifluoromethyl)pyridin-4-yl)-4,5,6,7-tetrahydro-2H-indazol-4-yl)-1H-pyrazole-5-carboxamide], for which the IC50 was under 250 nM.

`Cn1nc(C(F)(F)F)cc1C(=O)N[C@@H]1CCCn2nc(-c3ccnc(C4CC4)c3)cc21` [Compound I-64b] came in with a half-inhibitory concentration (IC50) of 500 to 1000 nM.

Regarding `N#Cc1cccc(C(=O)N[C@H]2CCc3nn(-c4ccnc(C(F)(F)F)c4)cc32)c1` [Compound I-454a], the IC50 is under 250 nM.

The molecule `CCOc1cc(-n2cc3c(n2)CCCC[C@H]3NC(=O)c2cc(C(F)(F)F)nn2C)ccn1` [Compound I-360b] showed an IC50 of over 1000 nM.

`Cn1nc(C(F)(F)F)cc1C(=O)N[C@@H]1CCCCn2nc(-c3ccnc(C(F)(F)F)c3)cc21` [Compound I-385b]: the IC50 was in the range of 250 to 500 nM.

`O=C(N[C@H]1CCCn2nc(-c3ccnc(C(F)(F)F)c3)cc21)C12CC(C(F)(F)F)(C1)C2` [Compound I-501a, (S)-3-(Trifluoromethyl)-N-(2-(2-(trifluoromethyl)pyridin-4-yl)-4,5,6,7-tetrahydropyrazolo[1,5-a]pyridin-4-yl)bicyclo[1.1.1]pentane-1-carboxamide] registered a half-inhibitory concentration (IC50) of under 250 nM.

For the molecule `O=C(N[C@H]1CCn2nc(-c3cc(C(F)(F)F)ncc3F)cc21)C12CC(C(F)F)(C1)C2` [Compound I-527a, (S)-3-(Difluoromethyl)-N-(2-(5-fluoro-2-(trifluoromethyl)pyridin-4-yl)-5,6-dihydro-4H-pyrrolo[1,2-b]pyrazol-4-yl)bicyclo[1.1.1]pentane-1-carboxamide], the IC50 is under 250 nM.

Turning to `CC12CC(C(=O)N[C@H]3CCn4nc(-c5cc(C(F)(F)F)ncc5F)cc43)(C1)C2` [Compound I-524a, (S)-N-(2-(5-Fluoro-2-(trifluoromethyl)pyridin-4-yl)-5,6-dihydro-4H-pyrrolo[1,2-b]pyrazol-4-yl)-3-methylbicyclo[1.1.1]pentane-1-carboxamide], the IC50 is under 250 nM.

Molecule `Cn1nc(C(F)(F)F)nc1C(=O)N[C@H]1CCn2nc(-c3ccnc(C4CC4)c3)cc21` [Compound I-205a, (S)-N-(2-(2-Cyclopropylpyridin-4-yl)-5,6-dihydro-4H-pyrrolo[1,2-b]pyrazol-4-yl)-1-methyl-3-(trifluoromethyl)-1H-1,2,4-triazole-5-carboxamide] gave an IC50 of under 250 nM.

In the case of `COc1cc(C#N)cc(C(=O)N[C@H]2CCCn3nc(-c4ccnc(C(F)(F)F)c4)cc32)c1` [Compound I-341a, (S)-3-Cyano-5-methoxy-N-(2-(2-(trifluoromethyl)pyridin-4-yl)-4,5,6,7-tetrahydropyrazolo[1,5-a]pyridin-4-yl)benzamide], the IC50 was under 250 nM.

With `Cn1nc(C2CC2)cc1C(=O)N[C@H]1CCCn2nc(-c3ccnc(C(F)(F)F)c3)cc21` [Compound I-347a], the IC50 was under 250 nM.

In turn, `Cn1nc(C(F)(F)F)cc1C(=O)N[C@H]1CCCc2nn(-c3ccnc(C#N)c3)cc21` [Compound I-375a] showed an IC50 of over 1000 nM.

For `N#Cc1cc(C(=O)N[C@H]2CCCn3nc(-c4ccnc(C(F)(F)F)c4)cc32)cc(C(F)(F)F)c1` [Compound I-295a, (S)-3-Cyano-5-(trifluoromethyl)-N-(2-(2-(trifluoromethyl)pyridin-4-yl)-4,5,6,7-tetrahydropyrazolo[1,5-a]pyridin-4-yl)benzamide], the 50% inhibitory concentration (IC50) is under 250 nM.

The molecule `Cc1cc(C(=O)N[C@H]2CCCn3nc(-c4ccnc(C(F)(F)F)c4)cc32)n(C(F)F)n1` [Compound I-426a] registered an IC50 of under 250 nM.

Molecule `Cn1nc(C(F)F)cc1C(=O)NC1CCCc2nn(-c3ccnc(C(F)(F)F)c3)cc21` (racemic) [Compound I-12, (rac)-3-(Difluoromethyl)-1-methyl-N-(2-(2-(trifluoromethyl)pyridin-4-yl)-4,5,6,7-tetrahydro-2H-indazol-4-yl)-1H-pyrazole-5-carboxamide] showed a half-maximal inhibitory concentration (IC50) of under 250 nM.

In the case of `Cn1nc(C(F)(F)F)cc1C(=O)N[C@H]1CCCCn2nc(-c3ccnc(C(F)(F)F)c3)cc21` [Compound I-385a], the IC50 was under 250 nM.

Molecule `C#Cc1cc(-n2cc3c(n2)CC[C@H]3NC(=O)c2cc(C(F)(F)F)nn2C)ccn1` [Compound I-78b] showed a 50% inhibitory concentration (IC50) of over 1000 nM.

As to `Cc1cc(C(=O)N[C@@H]2CCc3nn(-c4ccnc(C(F)(F)F)c4)cc32)cc(C(F)(F)F)c1` [Compound I-373b], the IC50 is under 250 nM.

Consider `Cc1cc(Cl)ccc1C(=O)N[C@H]1CCc2nn(-c3ccnc(C(F)(F)F)c3)cc21` [Compound I-95a], for which the half-inhibitory concentration (IC50) was under 250 nM.

The molecule `Cn1nc(C(F)(F)F)cc1C(=O)N[C@H]1CCc2nn(-c3ccnc(OC(F)F)c3)cc21` [Compound I-74a] gave an IC50 of under 250 nM.

`Cn1nc(C(F)(F)F)cc1C(=O)N[C@H]1CCCc2ncc(-c3ccnc(C(F)(F)F)c3)cc21` [Compound I-383a] showed a half-maximal inhibitory concentration (IC50) of over 1000 nM.

`COc1cc(-c2nc3c(o2)[C@H](NC(=O)c2cncc(C(F)(F)F)n2)CCC3)c(Cl)cn1` [Compound I-513b]: the IC50 was over 1000 nM.

The molecule `O=C(N[C@H]1CCn2nc(-c3cc(C(F)(F)F)ncc3F)cc21)C12CC(C(F)(F)F)(C1)C2` [Compound I-493a, (S)-N-(2-(5-Fluoro-2-(trifluoromethyl)pyridin-4-yl)-5,6-dihydro-4H-pyrrolo[1,2-b]pyrazol-4-yl)-3-(trifluoromethyl)bicyclo[1.1.1]pentane-1-carboxamide] had an IC50 of under 250 nM.

The values above are taken from patent US20250313548A1 (Actio Biosciences, Inc., priority 2023, published 2025).
